From publication PMC6656724 (Communications Biology, 2019)
In brackets after ≈: the same amount, converted by molar mass. Entries after “also recorded” stand apart in the source; their conditions may differ. Read-outs that look alike come from different tables or passages of the source.

Columns and labels:
[1] = biological target: T1, Pseudomonas fluorescens KMO (PfKMO) (Pseudomonas fluorescens, UniProt Q84HF5, C252S/C461S); experiment: biochemical
T1 construct: made in house; host or cells: E. coli BL21 (DE3)
T1 sequence (Q84HF5 whole entry C252S/C461S): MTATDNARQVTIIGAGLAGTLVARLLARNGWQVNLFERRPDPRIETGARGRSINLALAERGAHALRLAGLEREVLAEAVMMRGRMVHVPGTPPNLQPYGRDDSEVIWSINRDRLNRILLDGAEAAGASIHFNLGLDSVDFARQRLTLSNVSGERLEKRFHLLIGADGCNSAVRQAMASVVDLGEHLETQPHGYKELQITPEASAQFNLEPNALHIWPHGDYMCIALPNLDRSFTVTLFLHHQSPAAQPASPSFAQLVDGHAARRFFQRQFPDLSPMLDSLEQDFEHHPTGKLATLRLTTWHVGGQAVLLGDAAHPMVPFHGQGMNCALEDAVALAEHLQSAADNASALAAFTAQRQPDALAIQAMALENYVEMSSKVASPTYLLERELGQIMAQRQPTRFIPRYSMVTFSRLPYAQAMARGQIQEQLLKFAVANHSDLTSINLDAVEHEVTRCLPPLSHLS
Source text: (§1) A combination of ligand- and structural-based virtual screening approaches (see supporting information for details) was used to identify an initial library of >1000 compounds that may be suitable as potential KMO inhibitors. These compounds were screened for inhibition of Pseudomonas fluorescens KMO (PfKMO) and Homo sapiens KMO (HsKMO) using high-throughput assays by monitoring the time-dependent oxidation of NADPH at 340 nm[23].
(§2) Small-molecule compounds were supplied by Biofocus (Charles River Laboratories International Inc., MA, USA), which were identified in silico as potential inhibitors (further details are described in the Supplementary Methods). Initial inhibition assays were performed against Pseudomonas fluorescens KMO (PfKMO) and Homo sapiens KMO (HsKMO) by monitoring the time-dependent absorbance change of NADPH at 340 nm. Purified KMO protein (200 nM) was incubated in 100 µL reaction buffer (20 mM potassium phosphate pH 8.0, 7 mM 2-mercaptoethanol) containing 100 μM NADPH, 100 μM L-Kyn and 20 μM potential inhibitors in 96-well plates. […] The inhibitors identified in the initial screens were validated and re-assayed individually in a 1 cm path-length quartz micro cuvette. […] Suppliers for target inhibitor compounds are listed in Supplementary Table 11.
(§3) Supplementary Figure 1. Examples of inhibition data used to generate IC50 values for selected KMO inhibitors. Fixed concentration of L -KYN (200 µM) and NADPH (100µM) were added into reaction buffer (HsKMO: 20mM potassium phosphate pH 8.0, 7 mM 2-mercaptoethanol; PfKMO: 20 mM HEPES, 10mM sodium acetate, pH 7.5, 2mM DTT). The reaction was initiated by the addition of KMO enzyme (HsKMO: 0.5µM; PfKMO: 0.1 µM). KMO activity was measured in the presence of a range of inhibitor concentrations. […]
(§4) 3.5 Steady-state enzymatic assays.
(§5) Initial screening assays and determination of IC50 values for each potential inhibitor compound were carried out using either 0.1 µM PfKMO or 0.5 µM HsKMO at fixed […]
(§6) (HsKMO: 20 mM potassium phosphate pH 8.0, 7 mM 2-mercaptoethanol; PfKMO:
(§7) 20 mM HEPES, 10 mM sodium acetate, pH 7.5, 2 mM DTT). KMO activity was measured in the presence of a range of inhibitor concentrations by monitoring the […]
consumption of NADPH at 340 nm upon addition of enzyme via a Cary 50 UV-Vis spectrophotometer (Agilent Technologies). Rates were determined from linear regression fits to the initial linear portion of the curves. All measurements were performed in triplicate. The IC50 values for inhibitors were obtained by plotting the percentage inhibition versus the inhibitor concentration and fitting to the Morrison equation16 (equation 1) using Origin 9.0 Software (OriginLab, Northampton, MA). […]

[2] = Kinetic solubility in PBS, pH 7.4 (2% DMSO); type: physicochemical; conditions: for solubility at 2 h: PBS with 2% DMSO, pH 7.4, aqueous buffer, kinetic from dmso stock, PBS, pH 7.4 (2% DMSO)
Homo sapiens KMO (HsKMO) = biological target: T2, Homo sapiens KMO (HsKMO) (Homo sapiens, UniProt O15229); experiment: KMO inhibition assay, NADPH oxidation at 340 nm (HsKMO); type: biochemical
T2 construct: GST; made in house
T2 sequence (O15229 whole entry): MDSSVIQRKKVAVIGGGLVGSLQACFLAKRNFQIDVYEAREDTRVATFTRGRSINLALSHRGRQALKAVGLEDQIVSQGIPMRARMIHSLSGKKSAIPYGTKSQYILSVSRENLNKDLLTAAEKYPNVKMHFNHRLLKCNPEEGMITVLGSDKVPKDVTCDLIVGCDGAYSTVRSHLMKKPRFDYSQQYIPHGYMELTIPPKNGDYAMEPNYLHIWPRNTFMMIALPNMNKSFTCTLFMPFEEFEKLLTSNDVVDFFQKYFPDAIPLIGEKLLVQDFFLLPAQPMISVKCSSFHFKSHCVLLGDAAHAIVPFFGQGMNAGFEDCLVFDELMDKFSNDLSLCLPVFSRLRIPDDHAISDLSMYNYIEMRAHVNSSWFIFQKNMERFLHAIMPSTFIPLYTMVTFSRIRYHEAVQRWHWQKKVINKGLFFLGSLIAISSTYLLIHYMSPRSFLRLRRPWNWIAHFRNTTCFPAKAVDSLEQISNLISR
Source text: as §1, §2
Supplementary Figure 1. Examples of inhibition data used to generate IC50 values for selected KMO inhibitors.
as §3, with “NADPH” for “Supplementary Figure 1. Examples of inhibition data used to generate IC50 values for selected KMO inhibitors. Fixed concentration of L -KYN (200 µM) and NADPH”
as §4, §5, §6, §7
consumption of NADPH at 340 nm upon addition of enzyme via a Cary 50 UV-Vis spectrophotometer (Agilent Technologies). Rates were determined from linear regression fits to the initial linear portion of the curves. All measurements were performed in triplicate. The IC50 values for inhibitors were obtained by plotting the percentage inhibition versus the inhibitor concentration and fitting to the Morrison equation16 (equation 1) using Origin 9.0 Software (OriginLab, Northampton, MA).
E + I + K!"" − E + I + K!"" ! − 4[E][I] where v0 is the enzyme activity without inhibitor, vi is the enzyme activity with ligand

K562 cells = experiment: Competition assay for uptake of riboflavin; type: cell-based, Human; set-up: key to Mean FL2-A, compound only: relative fluorescence units; conditions: for Mean FL2-A, compound + riboflavin (RF): 1 µM riboflavin plus 100 µM compound; for Inhibition of riboflavin uptake: 1 µM riboflavin; for Inhibition of riboflavin uptake / Mean FL2-A, compound only: compound 100 µM
Protocol: Riboflavin transporters are equilibrative rather than concentrative, and the uptake of the inhibitors would be hard to measure directly. To assess whether the KMO inhibitors were substrates for riboflavin transporters, we assessed their ability to compete with riboflavin for uptake into cells. Riboflavin is intensely fluorescent, and is taken up in human cells by three main transporters SLC52A1, SLC52A2 and SLC52A3[28]. […] Consequently, we incubated cells with 1 μM riboflavin in the absence and presence of the various KMO inhibitors. There was a background fluorescence of some 100 relative fluorescence units. […] The data are summarised in Fig. 3c, and are consistent with the view that at least some of the KMO inhibitor uptake is likely to go via riboflavin transporters.
Supplementary Figure 15. A. Uptake of riboflavin into K562 cells. K562 cells were suspended in Dulbecco's phosphate-buffered saline (DPBS) supplemented with 5 mM glucose + 1 % fetal bovine serum (FBS) at a density of 0.5 x 10^6 cells/mL.
Compounds were added to Eppendorf tubes and DMSO removed through drying (vacuum centrifuge). Riboflavin was present at 1 µM and inhibitor 1 or prodrugs at 100 µM. 500 µL cells were added to Eppendorf tubes (containing the compound(s) of interest) and fluorescence measured immediately (excitation 488 nm, emission 525 ± 25nm) in a SONY SH800 flow cytometer over 300 s. Cells were maintained at 37 ℃ throughout in a water bath. Each symbol is the mean fluorescence of ~30 cells observed over a period of 1s. Purple, 1 µM riboflavin only; Red, 100 µM compound only; Blue, 1 µM riboflavin plus 100 µM compound; Green, no additions (control).
Note that the external concentration of riboflavin was rather critical, as the riboflavin transporters also catalyse exchange reactions with their various substrates. B.
Structures of KMO inhibitors and prodrugs and riboflavin, and their maximum common substructures (shown as a blue oval on 1). C. Gating strategy employed in this assay. Gate applied to K562 cell population is marked with a black line. SSC, side scatter, FSC, Forward scatter.
(1 picture or pasted object on this page, not shown here)

| Structure (SMILES) | IC50 [1] [µM] | solubility at 2 h ([2]; read-out: Solubility Mean) [µM] | solubility at 2 h ([2]; read-out: Solubility n=1) [µM] | solubility at 2 h ([2]; read-out: Solubility n=2) [µM] | IC50 (Homo sapiens KMO (HsKMO)) [µM] | Mean FL2-A, compound + riboflavin (RF) (K562 cells; time 1) | Mean FL2-A, compound + riboflavin (RF) (K562 cells; time 2) | Mean FL2-A, compound + riboflavin (RF) (K562 cells; time 3) | Inhibition of riboflavin uptake (K562 cells) | Mean FL2-A, compound only (K562 cells; time 1) | Mean FL2-A, compound only (K562 cells; time 2) | Mean FL2-A, compound only (K562 cells; time 3) | Kinetic solubility (in words) [2] |
| --- | --- | --- | --- | --- | --- | --- | --- | --- | --- | --- | --- | --- | --- |
| CC(CSc1ccc(Cl)cc1)C(=O)O (stereo not shown) [compound 6, 3-[(4-chlorophenyl)thio]-2-methylpropanoic acid] | 85.6 ± 4.4 | 187 (≈ 43.1 µg/mL) | 186 (≈ 42.9 µg/mL) | 188 (≈ 43.4 µg/mL) | 68.6 |  |  |  |  |  |  |  |  |
| Cc1cc2c(c(C)c1Cl)N(CC(=O)OC(C)C)C(=O)CO2 [1c] | > 300 |  |  |  | > 300 | 59.0947 | 60.924 | 73.4972 | inhibit riboflavin uptake | 60.7763 | 66.3048 | 65.3995 |  |
| COC(=O)CN1C(=O)COc2cc(C)c(Cl)c(C)c21 [1a] | > 500 |  |  |  | ~500 | 66.6886 | 77.0559 | 76.3441 | inhibit riboflavin uptake | 62.8068 | 65.3939 | 65.9534 |  |
| Oc1ccc(-c2csc3nc(-c4ccccc4)nn23)c(O)c1 [compound 3, 4-(2-phenyl[1,2,4]triazolo[5,1-b][1,3]thiazol-6-yl)benzene-1,3-diol] | 74.7 ± 8 | 67 (≈ 20.7 µg/mL) | 68 (≈ 21 µg/mL) | 65 (≈ 20.1 µg/mL) | 2.3 |  |  |  |  |  |  |  |  |
| CCOC(=O)CN1C(=O)COc2cc(C)c(Cl)c(C)c21 [1b] | > 300 |  |  |  | > 500 | 68.4214 | 59.9856 | 60.5407 | inhibit riboflavin uptake; also recorded: higher inhibition | 59.4089 | 74.4694 | 63.9701 |  |
| Cc1cc2c(c(C)c1Cl)N(Cc1nn[nH]n1)C(=O)CO2 [1h, 6-chloro-5,7-dimethyl-4-(2H-tetrazol-5-ylmethyl)-1,4-benzoxazin-3-one] | 17 ± 0.43 |  |  |  | 1.28 ± 0.08 |  |  |  |  |  |  |  |  |
| Cc1cc2c(c(C)c1Cl)N(CC(=O)O)C(=O)CO2 [compound 1, (6-chloro-5,7-dimethyl-3-oxo-2,3-dihydro-4H-1,4-benzoxazin-4-yl) acetic acid] |  | 193 (≈ 52 µg/mL) | 191 (≈ 51.5 µg/mL) | 194 (≈ 52.3 µg/mL) |  | 57.8501 | 68.195 | 76.5831 | inhibit riboflavin uptake | 58.5977 | 60.0072 | 67.7034 | good |
| Cn1c(C(=O)N[C@@H](C(=O)O)c2ccccc2)cc2cc(F)ccc21 [compound 5, (R)-2-(5-fluoro-1-methyl-1H-indole-2-carboxamido)-2-phenylacetic acid] | 123 ± 8 | 185 (≈ 60.4 µg/mL) | 186 (≈ 60.7 µg/mL) | 183 (≈ 59.7 µg/mL) | 55.3 |  |  |  |  |  |  |  |  |
